Experimental data taken from ChEMBL document CHEMBL1201861, “Genomics of Drug Sensitity in Cancer screening data, Wellcome Trust Sanger Institute”.

Key:
Experiment in all cases: cells
Type in all cases: functional, cell-based
Conditions in all cases: Homo sapiens
COLO-792 = test system: COLO-792
Description: SANGER: Inhibition of human COLO-792 cell growth in a cell viability assay.

COR-L105 = test system: COR-L105;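 further: cell growth inhibition determined with a viability assay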
Description: SANGER: Inhibition of human COR-L105 cell growth in a cell viability assay.

DBTRG-05MG = test system: DBTRG-05MG;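 further: cell viability assay measuring growth inhibition of human DBTRG-05MG cells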
Description: SANGER: Inhibition of human DBTRG-05MG cell growth in a cell viability assay.

EFO-21 = test system: EFO-21;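 further: growth inhibition of EFO-21 cells measured with a viability assay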
Description: SANGER: Inhibition of human EFO-21 cell growth in a cell viability assay.

EFO-27 = test system: EFO-27;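 further: growth inhibition of EFO-27 cells, read out with a cell viability assay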
Description: SANGER: Inhibition of human EFO-27 cell growth in a cell viability assay.

EW-22 = test system: EW-22;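 further: growth inhibition of the EW-22 cell line, measured with a cell viability readout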
Description: SANGER: Inhibition of human EW-22 cell growth in a cell viability assay.

H4 = test system: H4
Description: SANGER: Inhibition of human H4 cell growth in a cell viability assay.

HCC1419 = test system: HCC1419;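 further: growth inhibition of human HCC1419 cells, read out as cell viability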
Description: SANGER: Inhibition of human HCC1419 cell growth in a cell viability assay.

HCC38 = test system: HCC38;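 further: cell viability assay on the human HCC38 cell line, with IC50 marking the concentration that inhibits cell growth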
Description: SANGER: Inhibition of human HCC38 cell growth in a cell viability assay.

HCT-116 = test system: HCT-116
Description: SANGER: Inhibition of human HCT-116 cell growth in a cell viability assay.

HLE = test system: HLE;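 further: growth inhibition of human HLE cells, read out by a cell viability assay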
Description: SANGER: Inhibition of human HLE cell growth in a cell viability assay.

HT-1080 = test system: HT-1080
Description: SANGER: Inhibition of human HT-1080 cell growth in a cell viability assay.

HT-3 = test system: HT-3;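 further: growth inhibition measured with a cell viability readout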
Description: SANGER: Inhibition of human HT-3 cell growth in a cell viability assay.

Hs-578T = test system: Hs-578T
Description: SANGER: Inhibition of human Hs-578-T cell growth in a cell viability assay.

HuO9 = test system: HuO9;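 further: growth inhibition of HuO9 cells, read out with a cell viability assay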
Description: SANGER: Inhibition of human HuO9 cell growth in a cell viability assay.

J82 = test system: J82;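 further: growth inhibition of J82 cells, read out with a cell viability assay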
Description: SANGER: Inhibition of human J82 cell growth in a cell viability assay.

Kasumi 1 = test system: Kasumi 1;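 further: growth inhibition of human Kasumi-1 cells, read out by a cell viability assay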
Description: SANGER: Inhibition of human KASUMI-1 cell growth in a cell viability assay.

KU-19-19 = test system: KU-19-19
Description: SANGER: Inhibition of human KU-19-19 cell growth in a cell viability assay.

KYSE-510 = test system: KYSE-510;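 further: cell viability readout used to measure how strongly growth of the cell line is suppressed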
Description: SANGER: Inhibition of human KYSE-510 cell growth in a cell viability assay.

KYSE-520 cell line = test system: KYSE-520 cell line;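 further: growth inhibition of human KYSE-520 cells, read out with a viability assay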
Description: SANGER: Inhibition of human KYSE-520 cell growth in a cell viability assay.

KYSE-70 cell line = test system: KYSE-70 cell line;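 further: cell viability assay read-out, with IC50 expressing suppression of KYSE-70 cell growth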
Description: SANGER: Inhibition of human KYSE-70 cell growth in a cell viability assay.

LK-2 = test system: LK-2;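 further: growth inhibition of LK-2 cells, read out with a viability assay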
Description: SANGER: Inhibition of human LK-2 cell growth in a cell viability assay.

LU-99A = test system: LU-99A;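 further: growth inhibition of LU-99A cells, read out with a cell viability assay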
Description: SANGER: Inhibition of human LU-99A cell growth in a cell viability assay.

MDA-MB-175-VII = test system: MDA-MB-175-VII
MG-63 = test system: MG-63;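 further: growth inhibition of human MG-63 cells, read out with a cell viability assay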
Description: SANGER: Inhibition of human MG-63 cell growth in a cell viability assay.

NB7 = test system: NB7;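 further: growth inhibition of NB7 cells, read out with a cell viability assay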
Description: SANGER: Inhibition of human NB7 cell growth in a cell viability assay.

NCI-H1651 = test system: NCI-H1651;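 further: Read-out is a cell viability assay, with IC50 expressing inhibition of NCI-H1651 cell growth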
Description: SANGER: Inhibition of human NCI-H1651 cell growth in a cell viability assay.

NCI-H1792 = test system: NCI-H1792;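 further: growth inhibition of human NCI-H1792 cells, read out as cell viability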
Description: SANGER: Inhibition of human NCI-H1792 cell growth in a cell viability assay.

NCI-H2122 = test system: NCI-H2122;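 further: growth inhibition of the cells, read out with a cell viability assay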
Description: SANGER: Inhibition of human NCI-H2122 cell growth in a cell viability assay.

NCI-H441 = test system: NCI-H441;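 further: growth inhibition of NCI-H441 cells, read out with a cell viability assay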
Description: SANGER: Inhibition of human NCI-H441 cell growth in a cell viability assay.

NCI-H596 = test system: NCI-H596;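 further: growth inhibition of NCI-H596 cells, read out with a cell viability assay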
Description: SANGER: Inhibition of human NCI-H596 cell growth in a cell viability assay.

OAW-42 = test system: OAW-42;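 further: growth inhibition of OAW-42 cells, read out with a cell viability assay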
Description: SANGER: Inhibition of human OAW-42 cell growth in a cell viability assay.

PC-14 = test system: PC-14;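 further: cell viability assay measuring inhibition of PC-14 cell growth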
Description: SANGER: Inhibition of human PC-14 cell growth in a cell viability assay.

RERF-LC-MS = test system: RERF-LC-MS;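 further: growth inhibition of human RERF-LC-MS cells, read out by a cell viability assay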
Description: SANGER: Inhibition of human RERF-LC-MS cell growth in a cell viability assay.

RT-112 = test system: RT-112
Description: SANGER: Inhibition of human RT-112 cell growth in a cell viability assay.

SCC-9 = test system: SCC-9;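 further: Read-out is a cell viability assay, with values giving inhibition of cell growth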
Description: SANGER: Inhibition of human SCC-9 cell growth in a cell viability assay.

SF-295 = test system: SF-295;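 further: growth inhibition of SF-295 cells, read out with a cell viability assay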
Description: SANGER: Inhibition of human SF295 cell growth in a cell viability assay.

SK-MEL-24 = test system: SK-MEL-24;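 further: growth inhibition read out by a cell viability assay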
Description: SANGER: Inhibition of human SK-MEL-24 cell growth in a cell viability assay.

SNU-387 = test system: SNU-387
Description: SANGER: Inhibition of human SNU-387 cell growth in a cell viability assay.

SW1783 = test system: SW1783;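 further: cell growth inhibition measured with a viability assay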
Description: SANGER: Inhibition of human SW1783 cell growth in a cell viability assay.

SW948 = test system: SW948;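 further: growth inhibition of SW948 cells, read out with a cell viability assay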
Description: SANGER: Inhibition of human SW948 cell growth in a cell viability assay.

SiHa = test system: SiHa;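 further: Viability-based readout of growth inhibition in SiHa cells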
Description: SANGER: Inhibition of human SiHa cell growth in a cell viability assay.

T84 = test system: T84;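 further: growth inhibition measured with a cell viability readout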
Description: SANGER: Inhibition of human T84 cell growth in a cell viability assay.

639-V = test system: 639-V;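 further: growth inhibition of 639-V cells, read out with a cell viability assay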
Description: SANGER: Inhibition of human 639-V cell growth in a cell viability assay.

8305C = test system: 8305C
Description: SANGER: Inhibition of human 8305C cell growth in a cell viability assay.

A-431 = test system: A-431;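 further: growth inhibition of A-431 cells, determined with a cell viability read-out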
Description: SANGER: Inhibition of human A431 cell growth in a cell viability assay.

AU565 = test system: AU565;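 further: cell viability assay measuring growth inhibition of human AU565 cells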
Description: SANGER: Inhibition of human AU565 cell growth in a cell viability assay.

BFTC-905 = test system: BFTC-905
Description: SANGER: Inhibition of human BFTC-905 cell growth in a cell viability assay.

U-251 = test system: U-251;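 further: growth inhibition of human U-251 cells, read out through a cell viability assay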
Description: SANGER: Inhibition of human U251 cell growth in a cell viability assay.

UACC-893 = test system: UACC-893
Description: SANGER: Inhibition of human UACC-893 cell growth in a cell viability assay.

Measured: IC50

C[C@]12O[C@H](C[C@]1(O)CO)n1c3ccccc3c3c4c(c5c6ccccc6n2c5c31)CNC4=O [LESTAURTINIB]
250 nM: BFTC-905
428 nM: LK-2 | SF-295
19.1 nM: Kasumi 1
13.5 nM: H4
40.3 nM: HT-1080
1210 nM: SCC-9
1930 nM: KYSE-520 cell line
689 nM: 639-V
812 nM: RERF-LC-MS
464 nM: RT-112
899 nM: NB7
1650 nM: AU565
137 nM: HCT-116
601 nM: SNU-387
1030 nM: EFO-27
997 nM: Hs-578T
1920 nM: NCI-H2122
449 nM: HT-3 | PC-14
387 nM: A-431
561 nM: HuO9
1140 nM: MDA-MB-175-VII
1010 nM: LU-99A
1390 nM: HLE
1330 nM: KU-19-19
445 nM: MG-63
349 nM: OAW-42
862 nM: EW-22
1600 nM: SW1783
880 nM: NCI-H1792
> 2000 nM: all other assays above

C[C@]1(c2nc3c(C(N)=O)cccc3[nH]2)CCCN1 [VELIPARIB]
> 5000 nM: all assays above
